# Assay results reported in US9079913B2, “Spiro-oxindole MDM2 antagonists” (The Regents of the University of Michigan, priority 2009, dated 2015).
# Read-outs that look alike come from different tables or passages of the source.
# Columns and labels:
# [1] = test system: Isogenic HCT-116 colon cancer cell lines; assay: cells; type: cell-based;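 further: cells grown in 96-well plates in McCoy's 5A medium with 10% FBS, exposed to compound for 4 days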
# Method: Cells were seeded in 96-well flat bottom cell culture plates at a density of 2−3×10^3 cells/well with compounds and incubated for 4 days.
# [2] = test system: cancer cell lines with wild-type p53 / mutated or deleted p53 (ATCC); assay: Cell growth assay (WST-8), other cancer cell lines; type: cell-based
# [3] = target: recombinant human His-tagged MDM2 protein (residues 1-118) (Homo sapiens (Human), UniProt Q00987); assay: Fluorescence-polarization MDM2 binding assay;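 further: fluorescence polarization read after three hours of incubation in potassium phosphate buffer containing bovine gamma globulin and Triton X-100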
# [4] = Homo sapiens, HCT-116, read-out: Inhibition of cell growth IC50, HCT116 p53 KO, Table 19B, HCT116 p53 KO
# [5] = Homo sapiens, HCT-116, read-out: Inhibition of cell growth IC50, HCT116 p53 WT, Table 19B, HCT116 p53 WT
# [6] = read-out: Inhibition of cell growth IC50, HCT116 p53 KO, Table 19B, HCT116 p53 KO
# [7] = read-out: Inhibition of cell growth IC50, HCT116 p53 WT, Table 19B, HCT116 p53 WT
# [8] = Homo sapiens, LNCaP, Table 19B, LNCaP cells, read-out: Inhibition of cell growth IC50, LNCaP
# [9] = Homo sapiens, PC-3, Table 19B, PC3 cells, read-out: Inhibition of cell growth IC50, PC3
# [10] = Table 19B, LNCaP cells, read-out: Inhibition of cell growth IC50, LNCaP
# [11] = Table 19B, PC3 cells, read-out: Inhibition of cell growth IC50, PC3
# [12] = Table 19B, read-out: Binding affinities to MDM2 protein as determined by FP based assay IC50
# [13] = Homo sapiens, HCT-116, read-out: HCT116p53KO IC50, Table 19D, HCT116 p53KO
# [14] = Homo sapiens, HCT-116, read-out: HCT116p53WT IC50, Table 19D, HCT116 p53WT
# [15] = Homo sapiens, LNCaP, Table 19D, LNCaP cells, read-out: LNCaP IC50
# [16] = Homo sapiens, PC-3, Table 19D, PC3 cells, read-out: PC3 IC50
# [17] = Table 19D, read-out: MDM2 Binding Affinities IC50
# [18] = Homo sapiens, HCT-116, read-out: HCT-116 (p53-/-) IC50, Table 19A, HCT-116 p53-/-, cell growth
# [19] = Homo sapiens, HCT-116, read-out: HCT-116 (p53 wild-type) IC50, Table 19A, HCT-116 p53 wild-type, cell growth
# [20] = Homo sapiens, LNCaP, Table 19A, LNCAP cells, p53 wild-type, cell growth, read-out: LNCAP (p53 wild-type) IC50
# [21] = Homo sapiens, PC-3, Table 19A, PC-3 cells, deleted p53, cell growth, read-out: PC-3 (deleted p53) IC50
# [22] = Table 19A, FP binding assay, read-out: MDM2 IC50
# [23] = Homo sapiens, HCT-116, read-out: Cell growth inhibition using WST assay, HCT116 p53KO IC50, Table 19C, HCT116 p53KO
# [24] = Homo sapiens, HCT-116, read-out: Cell growth inhibition using WST assay, HCT116 p53WT IC50, Table 19C, HCT116 p53WT
# [25] = Homo sapiens, LNCaP, Table 19C, LNCaP cells, read-out: Cell growth inhibition using WST assay, LNCaP IC50
# [26] = Homo sapiens, PC-3, Table 19C, PC3 cells, read-out: Cell growth inhibition using WST assay, PC3 IC50
# [27] = Table 19C, read-out: Bidning affinities to MDM2 as determined using FP assay IC50
# Chain of recombinant human His-tagged MDM2 protein (residues 1-118) (Q00987 1-118): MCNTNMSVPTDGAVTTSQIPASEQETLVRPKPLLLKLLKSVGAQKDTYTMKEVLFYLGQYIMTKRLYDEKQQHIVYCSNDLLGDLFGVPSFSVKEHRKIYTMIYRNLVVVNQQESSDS
structure (smiles),measurement,setting,value
CC(C)CC(C)(C)C[C@H]1N(C)[C@@H](C(=O)NCC[C@H](O)CO)[C@H](c2cccc(Cl)c2)[C@@]12C(=O)Nc1cc(F)c(F)cc12 [MI-737],IC50,[1]; [4],24.4 µM
same,IC50,[1]; [5],5 µM
same,IC50,[1]; [6],15 µM
same,IC50,[1]; [7],4.5 µM
same,IC50,[2]; [8],3.53 µM
same,IC50,[2]; [9],11.3 µM
same,IC50,[2]; [10],3.73 µM
same,IC50,[2]; [11],11.6 µM
same,IC50,[3]; [12],> 1 µM
CC(C)(C)C[C@H]1N[C@@H](C(=O)NCCC2CCC(O)C2)[C@H](c2cccc(Cl)c2)[C@@]12C(=O)Nc1cc(F)c(F)cc12 (some centres unmarked) [MI-519-25],IC50,[1]; [13],> 10 µM
same,IC50,[1]; [14],< 3 µM
same,IC50,[2]; [15],< 5 µM
same,IC50,[2]; [16],> 10 µM
same,IC50,[3]; [17],< 3 µM
O=C(NCC[C@H](O)CO)[C@@H]1N[C@H](CCc2ccco2)[C@]2(C(=O)Nc3cc(Cl)c(F)cc32)[C@H]1c1cccc(Cl)c1 [MI-715C],IC50,[1]; [6],> 10 µM
same,IC50,[1]; [7],2.9 ± 0.6 µM
same,IC50,[2]; [10],2.2 ± 1.2 µM
same,IC50,[2]; [11],> 10 µM
same,IC50,[3]; [12],< 5 µM
CC(C)(C)C[C@H]1N[C@@H](C(=O)NC2CN(C(=O)NC3CCCCC3)C2)[C@H](c2cccc(Cl)c2F)[C@@]12C(=O)Nc1cc(Cl)ccc12 [MI-913],IC50,[1]; [18],8.8 µM
same,IC50,[1]; [19],< 5 µM
same,IC50,[2]; [20],< 5 µM
same,IC50,[2]; [21],4.9 µM
same,IC50,"[2]; Homo sapiens, SJSA-1, Table 19A, SJSA-1 cells, p53 wild-type, cell growth, read-out: SJSA-1 (p53 wild-type) IC50",< 5 µM
same,IC50,[3]; [22],< 3 µM
O=C(NCC[C@H](O)CO)[C@@H]1N[C@H](CCc2ccco2)[C@]2(C(=O)Nc3cc(Cl)c(F)cc32)[C@H]1c1cccc(Cl)c1 [MI-715B],IC50,[1]; [4],> 10 µM
same,IC50,[1]; [5],2.7 ± 1 µM
same,IC50,[2]; [8],3 ± 0.7 µM
same,IC50,[2]; [9],> 10 µM
same,IC50,[3]; [12],< 5 µM
CN1CCC(NC(=O)[C@@H]2N[C@H](CC(C)(C)C)[C@]3(C(=O)Nc4cc(Cl)ccc43)[C@H]2c2cccc(Cl)c2F)CC1 [MI-519-52],IC50,[1]; [13],> 5 µM
same,IC50,[1]; [14],< 1 µM
same,IC50,[2]; [15],< 1 µM
same,IC50,[2]; [16],> 3 µM
same,IC50,"[2]; Homo sapiens, Table 19D, SJSA-1 cells, unit inferred, read-out: SJSA-1",< 1 µM
same,IC50,[3]; [17],< 1 µM
CC(C)CC[C@H]1N[C@@H](C(=O)NCC[C@H](O)CO)[C@H](c2cccc(Cl)c2)[C@@]12C(=O)Nc1cc(Cl)c(F)cc12 [MI-705],IC50,[1]; [4],32 ± 33.3 µM
same,IC50,[1]; [5],4.4 ± 4 µM
same,IC50,[2]; [8],1.4 ± 0.8 µM
same,IC50,[2]; [9],43.9 ± 31.7 µM
same,IC50,[3]; [12],< 10 µM
O=C(NCC[C@H](O)CO)[C@@H]1N[C@H](CC2CC2)[C@]2(C(=O)Nc3cc(Cl)c(F)cc32)[C@H]1c1cccc(Cl)c1 [MI-706],IC50,[1]; [4],1.3 ± 0.2 µM
same,IC50,[1]; [5],0.6 ± 0.1 µM
same,IC50,[2]; [8],0.3 µM
same,IC50,[2]; [9],4.6 ± 2.9 µM
same,IC50,[3]; [12],< 10 µM
CNC[C@@H](O)CCNC(=O)[C@@H]1N[C@H](CC(C)(C)C)[C@]2(C(=O)Nc3cc(Cl)c(F)cc32)[C@H]1c1ccc(F)c(Cl)c1 [MI-319-30],IC50,[1]; [23],> 10 µM
same,IC50,[1]; [24],> 10 µM
same,IC50,[2]; [25],> 5 µM
same,IC50,[2]; [26],> 10 µM
same,IC50,[3]; [27],< 5 µM
CC[C@H]1N[C@@H](C(=O)NCCN2CCOCC2)[C@H](c2cccc(Cl)c2)[C@@]12C(=O)Nc1cc(Cl)c(F)cc12 [MI-319-39],IC50,[1]; [23],> 10 µM
same,IC50,[1]; [24],> 3 µM
same,IC50,[2]; [25],> 3 µM
same,IC50,[2]; [26],> 10 µM
same,IC50,[3]; [27],> 10 µM
CN1[C@@H](C(=O)NCC[C@H](O)CO)[C@H](c2cccc(Cl)c2)[C@@]2(C(=O)Nc3cc(Cl)c(F)cc32)[C@H]1CCC1CCCC1 [MI-713],IC50,[1]; [4],4.3 ± 0.7 µM
same,IC50,[1]; [5],4.9 ± 1.4 µM
same,IC50,[2]; [8],2.7 ± 0.7 µM
same,IC50,[2]; [9],6.1 ± 2.1 µM
same,IC50,[3]; [12],< 10 µM
CC(C)(C)C[C@H]1N[C@@H](C(=O)NCC2CC(O)C(O)C2)[C@H](c2cccc(Cl)c2)[C@@]12C(=O)Nc1cc(Cl)c(F)cc12 (some centres unmarked) [MI-519-36],IC50,[1]; [18],29.8 ± 6.5 µM
same,IC50,[1]; [19],1.2 ± 0.6 µM
same,IC50,[2]; [20],0.9 ± 0.1 µM
same,IC50,[2]; [21],20.6 ± 5.3 µM
same,IC50,[3]; [22],< 1 µM
O=C(NCC[C@H](O)CO)[C@@H]1N[C@H](CC2CCCCC2)[C@]2(C(=O)Nc3cc(Cl)c(F)cc32)[C@H]1c1cccc(Cl)c1 [MI-716B],IC50,[1]; [6],11.5 ± 0.7 µM
same,IC50,[1]; [7],0.6 ± 0.2 µM
same,IC50,[2]; [10],0.86 ± 0.3 µM
same,IC50,[2]; [11],9 ± 2.8 µM
same,IC50,[3]; [12],< 1 µM
